# Source: patent US7846970B2, “Hydroxycitric acid derivatives and skin external preparations containing the same” (Showa Denko K.K., priority 2004, dated 2010)
# Assays:
# [1] = tested on: Human white preadipocytes; assay: Test (2) of use in combination with caffeine and the like, triglyceride accumulation; assay type: cell-based; conditions: 50 μM, 4 days
# Description: (§1) After differentiation into adipocytes had been observed, the culture medium was replaced with one that contained 50 μM of (b), or 100 μM of (i), or 50 μM of (j), or 50 μM and 100 μM of (b) and (i) respectively, or 50 μM and 50 μM of (b) and (j) respectively. The incubation was continued for another 4 days. The control was incubated using a culture medium that contained no test articles.
# [2] = tested on: Human white preadipocytes; assay: Cell survival rate (Test Example 6); assay type: cell-based; conditions: 4 days, 50 μM
# Description: as §1
# [3] = tested on: Human white preadipocytes
# Description: (§4) Human white preadipocytes (available from Zen-Bio Inc.) were disseminated in two T-25 flasks and were incubated at 37° C. and 5% CO2 using a white preadipocyte culture medium (PM-1, available from Zen-Bio Inc.). After several days, microscopic observation confirmed that the cells had been confluent, and the medium was replaced with a human white preadipocyte differentiation medium (DM-1, available from Zen-Bio Inc.). After three days, the differentiation medium was changed to a white adipocyte medium (AM-1, available from Zen-Bio Inc.). Incubation was continued while renewing half of the white adipocyte medium every three days.
# (§5) After differentiation into adipocytes had been observed, the culture media in the flasks were each replaced with one that contained 1 mM of the test article (a) or 0.05 mM of the test article (b). The incubation was continued for another 5 days.
# (§6) After 5 days of incubation, the cells were released from the flask bottom by adding trypsin and were collected by centrifugation (at 1,000 rpm for 5 minutes). The cells collected were washed two times with Dulbecco's PBS (−), and were transferred to 1.5 ml tubes, followed by freezing and thawing. […]
# (§7) The test article in the extract was determined by LC/MS, and the protein in the extract was determined by the Lowry method as described in Test Example 1.
# [4] = Skin permeation test (Test Example 1); assay type: in vitro ADME, minipig
# Description: The above test articles, each 0.5% by mass, were dissolved separately in Dulbecco's PBS (−).
# 2-cm square skin pieces of minipig (Charles River Laboratories Inc. (United States of America)) were placed in the Netwell (manufactured by Corning Incorporated), and assay rings (Teflon® rings with a center opening) on which a silicon sealant had been applied were pressed and fixed to the epidermis of the skin. Subsequently, 2 ml of a skin culture medium (TOYOBO CO., LTD.) was added to a multiwell plate, and the Netwell was set such that skin lower portions would be soaked. Each of the test article solutions, 0.1 ml, was slowly poured into the opening of assay ring; when no leakage was confirmed, the units were sealed with multiplate seals and were allowed to stand in an incubator at 37° C. and 5% carbon dioxide.
# After 4 hours, the test article solutions on the skin pieces were pipetted. The skin pieces were recovered from the Netwell, and distilled water in a washing bottle was poured thereover for washing. The assay rings were detached, and the central portions that had contacted with the solution were punched out with an 8 mm biopsy punch. The excised skin pieces were transferred to 1.5 ml tubes, and 1 ml of 0.5% trypsin solution was added to each tube. The trypsin solution was caused to permeate the skin piece for a day and a night at 4° C.
# Next day, the trypsin solution was removed, and the skin pieces were washed three times each with 1 ml of distilled water and were heated in an incubator at 37° C. for 5 minutes, resulting in release of the epidermis. The epidermis that had been released and been floating was peeled with tweezers to separate the skin piece into the epidermis and the dermis. The epidermis and dermis were separately transferred to new 1.5 ml tubes and were heated in an incubator at 37° C. for 30 minutes.
# Thereafter, the epidermis and the dermis were fed with 0.1 ml and 0.5 ml of distilled water, respectively, followed by freezing and thawing. […] Thus, a tissue extract was obtained.
# 400 μl of the reagent 4 was added to a sample tube containing 20 μl of the sample solution or the standard sample solution, followed by mixing. The mixture was allowed to stand at room temperature for at least 15 minutes. Thereafter, 40 μl of the reagent 3 was added and mixed together, and the mixture was allowed to stand at room temperature for at least 30 minutes. The absorbance at 750 nm was measured with a spectrophotometer, and the protein concentration in the sample solution was determined using a calibration curve obtained with the standard sample.
# Mouse 3T3-F442A cells [5] = assay: Triglyceride accumulation test (1), oil red staining; assay type: cell-based; conditions: 100 μM, 4 days, differentiated 3T3-F442A adipocytes
# Description: Mouse 3T3-F442A cells (available from DAINIPPON PHARMACEUTICAL CO., LTD.) were disseminated on a 96-well microplate and were incubated at 37° C. and 5% CO2 over a period of 2 weeks using a DMEM culture medium (available from Invitrogen) containing 10% by mass of FCS.
# (§2) After differentiation of most cells into adipocytes had been observed with a microscope, the culture medium was replaced with one that contained 100 μM of any one of the test articles (a) to (c). The incubation was continued for another 4 days. The control was incubated using a culture medium that contained no test articles.
# After 4 days of incubation, the cells were washed three times with Dulbecco's PBS (−). The triglyceride accumulated in the cells was determined by oil red staining.
# [6] = tested on: Human white preadipocytes; assay: Triglyceride accumulation test (2), oil red staining; assay type: cell-based; conditions: 4 days
# Description: as §2, with “or 1 mM” for “of any one”, “article (a), or 10 μM, 25 μM or 50 μM of the test article (b).” for “articles (a) to (c).”
# (§3) After 4 days of incubation, the cells were washed three times with Dulbecco's PBS (−). The triglyceride accumulated in the cells was determined by oil red staining. The cell survival rate was measured by a calorimetric method (570 nm) using alamar blue reagent (manufactured by Molecular Probe).
# [7] = tested on: Human white preadipocytes; assay: Cell survival rate, alamar blue (Test Example 3); assay type: cell-based; conditions: 4 days
# Description: as §2, with “or 1 mM” for “of any one”, “article (a), or 10 μM, 25 μM or 50 μM of the test article (b).” for “articles (a) to (c).”
# as §3
# Mouse 3T3-F442A cells [8] = assay: Triglyceride accumulation test (3): lowest concentration at which TG/cell survival ratio is not more than 80; assay type: cell-based; conditions: lowest tested concentration with TG/cell survival ratio not more than 80 (control 100); 4 days
# Description: Likewise in Test Example 2, mouse 3T3-F442A cells (available from DAINIPPON PHARMACEUTICAL CO., LTD.) were disseminated on a 96-well microplate and were incubated at 37° C. and 5% CO2 over a period of 2 weeks using a DMEM culture medium (available from Invitrogen) containing 10% by mass of FCS.
# as §2, with “contained” for “contained 100 μM of”, “(a), (b) and (d)” for “(a)”, “(h) in an amount of 40 μM, 50 μM, 100 μM, 150 μM, 200 μM, 300 μM, 400 μM, 500 μM or […].” for “(c).”
# After 4 days of incubation, the cells were washed three times with Dulbecco's PBS (−). The triglyceride accumulated in the cells, and the cell survival rate were measured in similar manners as in Test Example 3.
# [9] = tested on: Human white preadipocytes; assay: Test for confirmation of breakdown of hydroxycitric acid derivative (amounts in cell extract, LC/MS); conditions: 1 mM test article, 5 days, human adipocytes
# Description: as §4, §5, §6, §7
# Mouse 3T3-F442A cells [10] = assay: Test (1) of use in combination with caffeine, triglyceride accumulation; assay type: cell-based; conditions: 0.05 mM (b) alone, which is the control (100%); 4 days
# Description: Mouse 3T3-F442A cells were incubated in a similar manner as in Test Example 2. After differentiation into adipocytes had been observed, the culture medium was replaced with one that contained 0.05 mM and 0.1 mM of the test article (b) and the test article (i), respectively. The incubation was continued for another 4 days. The control was incubated using a culture medium that contained 0.05 mM of the test article (b).
# After 4 days of incubation, the triglyceride accumulated in the cells was determined in a similar manner as in Test Example 2.
# [11] = dermis, test article 0.5% by mass in Dulbecco's PBS (-), 0.1 ml, 4 hours, 37°C
# [12] = epidermis, test article 0.5% by mass in Dulbecco's PBS (-), 0.1 ml, 4 hours, 37°C
molecule,measurement,setting,value
"C[N+](C)(C)C[C@H](O)CC(=O)[O-].Cl [(j), L-carnitine hydrochloride, reference compound]",(1/2) × 100 (triglyceride amount / cell survival rate),[1],91
same,Accumulated triglyceride amount (% relative to control): 1,[1],93 % relative to control
same,Cell survival rate (% relative to control): 2,[2],102 % relative to control
CCCCCCCCCCCCCCCC(=O)OC(CC(=O)O)(C(=O)O)C(O)C(=O)O (centres unmarked) [hydroxycitric acid-2-palmitate],Breakdown within adipocytes (in words),[3],broken down within adipocytes to generate hydroxycitric acid
"Hydroxycitric acid calcium salt [(a), reference compound]",Determined value: amount of hydroxycitric acid in dermis,[4]; [11],0.2 nmol/mg skin protein
same,Determined value: amount of hydroxycitric acid in epidermis,[4]; [12],0.4 nmol/mg skin protein
same,Accumulated triglyceride amount (% relative to control),Mouse 3T3-F442A cells [5],98 % relative to control
same,(1/2) × 100 (triglyceride amount / cell survival rate),[6]; 100 μM,98
same,Accumulated triglyceride amount (% relative to control): 1,[6]; 100 μM,86 % relative to control
same,(1/2) × 100 (triglyceride amount / cell survival rate),[6]; 1 mM,85
same,Accumulated triglyceride amount (% relative to control): 1,[6]; 1 mM,80 % relative to control
same,Cell survival rate (% relative to control): 2,[7]; 100 μM,88 % relative to control
same,Cell survival rate (% relative to control): 2,[7]; 1 mM,94 % relative to control
same,Concentration for 20% reduction of TG amount relative to control,Mouse 3T3-F442A cells [8],1e+06 µM
same,Determined value: amount of hydroxycitric acid in cell extract,[9],0.6 nmol/mg protein
Hydroxycitric acid monomethyl ester-2-palmitate sodium salt [(c)],Accumulated triglyceride amount (% relative to control),Mouse 3T3-F442A cells [5],84 % relative to control
Hydroxycitric acid-2-behenate sodium salt [(h)],Concentration for 20% reduction of TG amount relative to control,Mouse 3T3-F442A cells [8],40 µM
Hydroxycitric acid-2-caprate sodium salt [(e)],Concentration for 20% reduction of TG amount relative to control,Mouse 3T3-F442A cells [8],200 µM
Hydroxycitric acid-2-laurate sodium salt [(f)],Concentration for 20% reduction of TG amount relative to control,Mouse 3T3-F442A cells [8],150 µM
Hydroxycitric acid-2-myristate sodium salt [(g)],Concentration for 20% reduction of TG amount relative to control,Mouse 3T3-F442A cells [8],100 µM
Hydroxycitric acid-2-octanoate sodium salt [(d)],Concentration for 20% reduction of TG amount relative to control,Mouse 3T3-F442A cells [8],200 µM
Hydroxycitric acid-2-palmitate sodium salt [(b)],Determined value: amount of hydroxycitric acid-2-palmitate in dermis,[4]; [11],3.8 nmol/mg skin protein
same,Determined value: amount of hydroxycitric acid-2-palmitate in epidermis,[4]; [12],3.4 nmol/mg skin protein
same,Skin permeation (in words),"[4]; minipig skin, compared with (a)",can permeate the skin deeper into the dermis layer than hydroxycitric acid calcium salt (a)
same,Accumulated triglyceride amount (% relative to control),Mouse 3T3-F442A cells [5],52 % relative to control
same,(1/2) × 100 (triglyceride amount / cell survival rate),[6]; 10 μM,78
same,Accumulated triglyceride amount (% relative to control): 1,[6]; 10 μM,78 % relative to control
same,(1/2) × 100 (triglyceride amount / cell survival rate),[6]; 25 μM,71
same,Accumulated triglyceride amount (% relative to control): 1,[6]; 25 μM,72 % relative to control
same,(1/2) × 100 (triglyceride amount / cell survival rate),[6]; 50 μM,66
same,Accumulated triglyceride amount (% relative to control): 1,[6]; 50 μM,65 % relative to control
same,Cell survival rate (% relative to control): 2,[7]; 10 μM,100 % relative to control
same,Cell survival rate (% relative to control): 2,[7]; 25 μM,101 % relative to control
same,Cell survival rate (% relative to control): 2,[7]; 50 μM,98 % relative to control
same,Concentration for 20% reduction of TG amount relative to control,Mouse 3T3-F442A cells [8],50 µM
same,Accumulated triglyceride amount (% relative to control),Mouse 3T3-F442A cells [10],100 % relative to control
same,(1/2) × 100 (triglyceride amount / cell survival rate),[1],75
same,Accumulated triglyceride amount (% relative to control): 1,[1],75 % relative to control
